Measured values published in patent publication US20060287247A1, “Halogen-substituted thienyl compounds” (priority 2001, published 2006).

Legend:
S. aureus ATCC 29213 = experiment: NCCLS broth microdilution MIC; format: cell-based, Staphylococcus aureus; details: A = S. aureus ATCC 29213
Protocol: (§1) Compounds according to this invention were screened for their in vitro activities against selected species of bacteria and fungi. The minimal inhibition concentration (MIC) of these compounds was determined using the National Committee for Clinical Laboratory Standards (NCCLS) broth microdilution assay in microtiter plates, as set forth in: (1) the guidelines of the National Committee for Clinical Laboratory Standards (NCCLS) Document M7-A4 (NCCLS, 1997); (2) the guidelines of the National Committee for Clinical Laboratory Standards (NCCLS) Document M11-A4 (NCCLS, 1997); and (3) the guidelines and reference method of the National Committee for Clinical Laboratory Standards (NCCLS) Document M27-T (NCCLS, 1995). For antifungal essays, the method recommended in Murray, P R., 1995 Manual of Clinical Microbiology (ASM Press, Washington, D.C.), was employed. […]

C. albicans ATCC 38247 = experiment: NCCLS broth microdilution MIC (antifungal); format: cell-based; details: E = C. albicans ATCC 38247
Protocol: as §1

S. pneumoniae ATCC 49619 = experiment: NCCLS broth microdilution MIC; format: cell-based, Streptococcus pneumoniae; details: F = S. pneumoniae ATCC 49619
Protocol: as §1

E. faecalis ATCC 29212 = experiment: NCCLS broth microdilution MIC; format: cell-based, Enterococcus faecalis; details: B = E. faecalis ATCC 29212
Protocol: as §1

B. cereus ATCC 11778 = experiment: NCCLS broth microdilution MIC; format: cell-based, Bacillus cereus; details: C = B. cereus ATCC 11778
Protocol: as §1

5′-AAAAAGTACAAAAA-3′ = format: binding; details: DNA sequence 5′-AAAAAGTACAAAAA-3′; pH 7.0, 22° C.
Protocol: (§2) A number of compounds according to this invention were screened for their ability to bind to three DNA sites, using DNase I footprinting. Generally, the procedure described in Dervan, WO 98/50582 (1998), was followed.
(§3) A plasmid was prepared by hybridizing two sets of 5′-phosphorylated complementary oligonucleotides, one set being
(§4) The target sites and their complements are identified in bold underline.
(§5) The resulting duplexes were ligated to the large pUC19 AvaI/SalI restriction fragment. The 3′-P32 end-labeled EcoRI/PvuII fragment was prepared by digesting the plasmid with EcoRI and PvuII with simultaneous fill-in using Sequenase v. 2.0, [alpha-P32]-deoxyadenosine-5′-triphosphate, and [alpha-P32]-thymidine-5′-triphosphate, and isolating the cloned fragment by nondenaturing gel electrophoresis. Standard methods were used for all DNA manipulations, including A and G sequencing. See, e.g., Maxam et al., Methods Enzymol., 1980, 65, 499-560; Iverson et al., Methods Enzymol., 1987, 15, 7823-7830; and Sambrook et al., 1989, Molecular Cloning, 2nd ed., Cold Spring Harbor Laboratory Press: Cold Spring Harbor, N.Y.
(§6) Quantitative DNase I footprint titration experiments were carried out as described previously (Dervan, WO 98/50582, 1998, “Dervan '582”) with the following changes. All reactions were carried out in a total volume of 400 μL, with polyamide stock solution or water added to 15,000 cpm radiolabeled restriction fragment affording final solution conditions of 10 mM Tris.HCl, 10 mM KCl, 10 mM MgCl2, 5 mM CaCl2, pH 7.0 and 0.01 nM, 0.1 nM, 1.0 nM, 10.0 nM polyamide or no polyamide for reference lanes. The polyamides were allowed to equilibrate at 22° C. for 16 hr. Footprinting reactions were initiated with addition of 10 μL of a DNase I stock solution (at the appropriate concentration to give ˜50% intact DNA) containing 1 mM DTT and allowed to proceed for 7 min at 22° C. The reactions were stopped, ethanol precipitated, resuspended in loading buffer, heat denatured, and placed on ice as described in Dervan '582. The reaction products were separated on a precast 8% polyacrylamide denaturing sequencing Castaway gel with 32 preformed wells from Stratagene in 1× TBE at 2000 V. Gels were dried according to the manufacturer's instructions and exposed to a storage phosphor screen (Molecular Dynamics). Quantitation and data analysis were carried out as described in Dervan '582.

5′-AAAAAGACAAAAA-3′ = format: binding; details: DNA sequence 5′-AAAAAGACAAAAA-3′; pH 7.0, 22° C.
Protocol: as §2, §3, §4, §5, §6

5′-AAAAAGCAAAAA-3′ = format: binding; details: DNA sequence 5′-AAAAAGCAAAAA-3′; pH 7.0, 22° C.
Protocol: as §2, §3, §4, §5, §6

E. coli ATCC 25922 = experiment: NCCLS broth microdilution MIC; format: cell-based; details: D = E. coli ATCC 25922
Protocol: as §1

| SMILES | Minimum Inhibitory Concentration (MIC) (S. aureus ATCC 29213) | Minimum Inhibitory Concentration (MIC) (C. albicans ATCC 38247) [µg/mL] | Minimum Inhibitory Concentration (MIC) (S. pneumoniae ATCC 49619) | Minimum Inhibitory Concentration (MIC) (E. faecalis ATCC 29212) | Minimum Inhibitory Concentration (MIC) (B. cereus ATCC 11778) | Equilibrium Association Constant (Ka) (5′-AAAAAGTACAAAAA-3′) | Equilibrium Association Constant (Ka) (5′-AAAAAGACAAAAA-3′) | Equilibrium Association Constant (Ka) (5′-AAAAAGCAAAAA-3′) | Minimum Inhibitory Concentration (MIC) (E. coli ATCC 25922) [µg/mL] |
| --- | --- | --- | --- | --- | --- | --- | --- | --- | --- |
| CN(C)CCCNC(=O)CCNC(=O)c1cc(NC(=O)c2cc(NC(=O)CCNC(=O)c3cc(NC(=O)c4cc(NC(=O)c5cc(Br)c(Br)s5)cn4C)cn3C)cn2C)cn1C [Id-1] | +++ (+++ = MIC ≦4) | >32 | +++ (+++ = MIC ≦4) | +++ (+++ = MIC ≦4) | +++ (+++ = MIC ≦4) | ≧1 × 10^11 M^−1 | ≧1 × 10^11 M^−1 | ≧1 × 10^11 M^−1 | >32 |
| Cn1cc(NC(=O)c2cc(NC(=O)CCNC(=O)c3cc(NC(=O)c4cc(NC(=O)c5cc(Br)c(Br)s5)cn4C)cn3C)cn2C)cc1C(=O)NCCC(=O)NCCCCCCN [Id-2] | +++ (+++ = MIC ≦4) | >32 | +++ (+++ = MIC ≦4) | +++ (+++ = MIC ≦4) | +++ (+++ = MIC ≦4) | 5e+09 M⁻¹ | 5e+08 M⁻¹ | 5e+08 M⁻¹ | >32 |
| CC(C)N(CCNC(=O)CCNC(=O)c1cc(NC(=O)c2cc(NC(=O)CCNC(=O)c3cc(NC(=O)c4cc(NC(=O)c5cc(Br)c(Br)s5)cn4C)cn3C)cn2C)cn1C)C(C)C [Id-3] | +++ (+++ = MIC ≦4) | >32 | +++ (+++ = MIC ≦4) | +++ (+++ = MIC ≦4) | +++ (+++ = MIC ≦4) | 5e+09 M⁻¹ | 5e+08 M⁻¹ | 5e+08 M⁻¹ | >32 |
| Cn1cc(NC(=O)c2cc(NC(=O)CCNC(=O)c3cc(NC(=O)c4cc(NC(=O)c5cc(Br)c(Br)s5)cn4C)cn3C)cn2C)cc1C(=O)NCCC(=O)NCC(C)(C)CN [Id-4] | +++ (+++ = MIC ≦4) | >32 | +++ (+++ = MIC ≦4) | +++ (+++ = MIC ≦4) | +++ (+++ = MIC ≦4) | 5e+11 M⁻¹ | 1e+10 M⁻¹ | 5e+09 M⁻¹ | >32 |
| Cn1cc(NC(=O)c2cc(NC(=O)CCNC(=O)c3cc(NC(=O)c4cc(NC(=O)c5cc(Br)c(Br)s5)cn4C)cn3C)cn2C)cc1C(=O)NCCC(=O)NCCN1CCCCC1 [Id-5] | +++ (+++ = MIC ≦4) | >32 | +++ (+++ = MIC ≦4) | +++ (+++ = MIC ≦4) | +++ (+++ = MIC ≦4) | 1e+11 M⁻¹ | 2e+10 M⁻¹ | 2e+09 M⁻¹ | >32 |
| Cn1cc(NC(=O)c2cc(NC(=O)CCNC(=O)c3cc(NC(=O)c4cc(NC(=O)c5ccc(Br)s5)cn4C)cn3C)cn2C)cc1C(=O)NCCC(=O)NCCCNC1CCCCC1 [Id-15] | >32 µg/mL | >32 | ++ (++ = MIC between 4 and 12) | + (+ = MIC from 12 to 32, inclusive) | + (+ = MIC from 12 to 32, inclusive) | ≧1 × 10^11 M^−1 | 5e+10 M⁻¹ | 5e+10 M⁻¹ | – |
